Non-standard residues stand in square brackets, D forms with d. Residues, ends and D or L forms follow the SMILES beside them. *: point of attachment. AEEA = NCCOCCOCC(=O)O; X1 = O=C(O)C(C(=O)O)*
How the values were obtained:
[1] = biological target: T1, full‐length SHP2 (Homo sapiens, UniProt Q06124); experiment: DiFMUP phosphatase assay, peptide inhibition in the presence of ITIM-[dPEG4]2-ITSM activator; format: biochemical; conditions: 0.5 nM full-length SHP2 activated with 26 nM bisphosphorylated ITIM-[dPEG4]2-ITSM, 200 µM DiFMUP, pH 7.6, 20 min pre-incubation at room temperature; two or three independent experiments in technical triplicates; read-out: IC50 ± SEM (DiFMUP activity assay)
T1 construct: 1–525) proteins were prepared; His-SUMO3 (pETM11-SUMO3 vector) (N, cleaved yes); made in house; host or cells: E. coli BL21(DE3)
T1 sequence (Q06124 1-525): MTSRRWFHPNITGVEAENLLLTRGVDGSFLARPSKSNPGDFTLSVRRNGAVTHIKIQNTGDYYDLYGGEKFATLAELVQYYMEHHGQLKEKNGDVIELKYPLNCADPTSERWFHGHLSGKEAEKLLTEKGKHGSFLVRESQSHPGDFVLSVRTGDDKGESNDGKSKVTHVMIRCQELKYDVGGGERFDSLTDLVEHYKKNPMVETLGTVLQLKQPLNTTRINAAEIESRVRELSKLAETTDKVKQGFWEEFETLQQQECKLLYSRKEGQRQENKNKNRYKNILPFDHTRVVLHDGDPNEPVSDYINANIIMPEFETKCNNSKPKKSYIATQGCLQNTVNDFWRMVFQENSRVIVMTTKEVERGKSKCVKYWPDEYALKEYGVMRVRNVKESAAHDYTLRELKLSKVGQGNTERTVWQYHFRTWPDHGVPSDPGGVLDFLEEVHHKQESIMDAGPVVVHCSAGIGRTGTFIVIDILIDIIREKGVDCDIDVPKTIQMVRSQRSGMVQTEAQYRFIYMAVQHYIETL
Protocol: 6. DiFMUP phosphatase assays
SHP2 dephosphorylation of the fluorogenic substrate 6,8-difluoro-4-methylumbiliferyl phosphate (DiFMUP) was measured to evaluate the effect of acetylated peptides on SHP2 activity. Final concentrations of 0.5 nM full-length SHP2, 200 µM DiFMUP (Invitrogen) and 26 nM bisphosphorylated tandem ITIM-[dPEG4]2-ITSM (CASLO ApS) were used, unless stated otherwise, per well in 96-well plates (OptiPlate-96 F Black; PerkinElmer). For peptide activation assays, each well contained 60 µL of reaction buffer (50 mM HEPES pH 7.6, 150 mM NaCl, 1 mM EDTA, 0.05% Tween 20, freshly added 5 mM DTT), 10 µL of SHP2 and 20 µL of the test peptide (0.096 nM – 51.2 µM final concentration). For peptide inhibition assays in the presence of a SHP2 activator, each well contained 40 µL of reaction buffer (50 mM HEPES pH 7.6, 150 mM NaCl, 1 mM EDTA, 0.05% Tween 20, freshly added 5 mM DTT), 10 µL of SHP2 and 40 µL of previously mixed bisphosphorylated tandem ITIM-[dPEG4]2-ITSM activator and test peptide (0.096 nM – 51.2 µM or 0.376 nM – 200 µM final concentration). To obtain the maximal activity, 10 µL of SHP2 and 20 µL of bisphosphorylated tandem ITIM-[dPEG4]2-ITSM activator was added to 60 µL of buffer. Samples were incubated for 20 minutes at room temperature and then 10 µL of DiFMUP was added to each sample, to give a final volume of 100 µL per well. For background subtraction, 10 µL of DiFMUP was added to 80 µL of buffer. The fluorescence was immediately measured on a Synergy H1 Microplate Reader (BioTek) with the excitation and emission monitored at 358 nm and 452 nm, respectively, over 30 minutes. Data were analysed in Excel 2016 by subtracting background values from emission values and calculating the slope of the emission profiles. Data were then further analysed in GraphPad Prism 6 by either: 1) plotting the slope against the peptide concentration and fitting the data to a variable slope model of non-linear regression; or 2) normalising the data to the maximal activity (SHP2 in the presence of ITIM-[dPEG4]2-ITSM; set to 100% activity) to obtain the % activity, plotting the % activity against the peptide concentration and fitting the data to a variable slope model of non-linear regression to obtain the IC50 values. Data are from two or three independent experiments, each performed in […]

[2] = test system: WT HeLa cells; conditions: CCK-8, 100–300 µM, 16 h; three or four independent experiments in technical triplicates
Protocol: (§1) three or four independent experiments with 4 – 7 images taken per well in each […]
(§2) 7. Peptide cytotoxicity assays
(§3) The cytotoxicity of acetylated peptide 29 in WT Jurkat T cells and WT HeLa cells was determined using Cell Counting Kit-8 (CCK-8). Jurkat cells were seeded at 5 x 10^4 cells/well and HeLa cells were seeded at 5 x 10^3 cells/well in 96-well flat-bottom cell culture plates (Greiner Bio-One). HeLa cells were allowed to adhere overnight at 37°C […]
(§4) 200 µM for Jurkat cells and 100 µM, 200 µM or 300 µM for HeLa cells in a total volume of 100 µL, each concentration in triplicate wells. In addition, three wells containing media alone as the background, three wells containing vehicle (H2O) treated cells as the negative control and three wells containing cells treated with 5% DMSO (Jurkat cells) or 20% DMSO (HeLa cells) to induce cell death as the positive control, were included in the plate. Cells were incubated with the peptide or controls for 24 hours (Jurkat cells) or 16 hours (HeLa cells) at 37°C and 5% CO2, then 10 µL of CCK-8 solution (Sigma-Aldrich) was added to each well and incubated for 1.5 hours at 37°C

[3] = test system: WT Jurkat T cells; conditions: CCK-8, 50–200 μM, 24 h; four independent experiments in technical triplicates
Protocol: as §1, §2, §3, §4

[4] = biological target: T2, SHP2 N‐SH2 domain (Homo sapiens, UniProt Q06124); conditions: ITC, previously reported; read-out: previously reported ITC K D, N‐SH2; cited from earlier work
T2 construct: SHP2 N-SH2 domain (1–105), C-SH2 domain (106–220), PTP domain (224–541) and; His6 (pETM22 vector) (N, cleaved yes); made in house; host or cells: E. coli BL21(DE3)
T2 sequence (Q06124 1-105): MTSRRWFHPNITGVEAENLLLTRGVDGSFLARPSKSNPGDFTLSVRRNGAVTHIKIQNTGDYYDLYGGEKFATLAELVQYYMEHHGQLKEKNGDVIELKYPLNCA

[5] = biological target: T3, SHP2 C‐SH2 domain (Homo sapiens, UniProt Q06124); conditions: ITC, previously reported; read-out: previously reported ITC K D, C‐SH2; cited from earlier work
T3 construct: SHP2 N-SH2 domain (1–105), C-SH2 domain (106–220), PTP domain (224–541) and; His6 (pETM22 vector) (N, cleaved yes); made in house; host or cells: E. coli BL21(DE3)
T3 sequence (Q06124 106-220): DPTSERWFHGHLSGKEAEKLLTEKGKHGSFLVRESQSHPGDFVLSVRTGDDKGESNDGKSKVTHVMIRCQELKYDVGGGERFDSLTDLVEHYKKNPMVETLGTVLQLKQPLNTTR

**Q.** Which IC50 [1] does the source give for `CC[C@H](C)[C@H](NC(=O)[C@@H](NC(=O)[C@H](C)NC(=O)[C@H](Cc1ccc(OC(C(=O)O)C(=O)O)cc1)NC(=O)[C@H](CCC(=O)O)NC(=O)[C@@H](NC(=O)[C@H](CCC(N)=O)NC(C)=O)[C@@H](C)O)[C@@H](C)O)C(=O)N[C@@H](CCCCN)C(=O)N[C@@H](Cc1c[nH]cn1)C(=O)N1CCC[C@H]1C(N)=O` [peptide 24] (Ac-QTEY(X1)ATIKHP-NH2) here?
**A.** 7.82 ± 1.95 µM

**Q.** Which “cytotoxicity (viability) in HeLa cells” value [2] does the source give for `CC[C@H](C)[C@H](NC(=O)[C@@H](NC(=O)[C@H](C)NC(=O)[C@H](Cc1ccc(OC(C(=O)O)C(=O)O)cc1)NC(=O)[C@H](CCC(=O)O)NC(=O)[C@@H](NC(=O)[C@H](CCC(N)=O)NC(=O)COCCOCCNC(=O)[C@@H](CCCNC(=N)N)NC(=O)[C@@H](CCCNC(=N)N)NC(=O)[C@@H](CCCNC(=N)N)NC(=O)[C@@H](CCCNC(=N)N)NC(=O)[C@@H](CCCNC(=N)N)NC(=O)[C@@H](CCCNC(=N)N)NC(=O)[C@@H](CCCNC(=N)N)NC(=O)[C@@H](CCCNC(=N)N)NC(C)=O)[C@@H](C)O)[C@@H](C)O)C(=O)N[C@@H](CCCCN)C(=O)N[C@@H](Cc1c[nH]cn1)C(=O)N1CCC[C@H]1C(N)=O` [peptide 29] (Ac-[dR][dR][dR][dR][dR][dR][dR][dR][AEEA]QTEY(X1)ATIKHP-NH2) here?
**A.** no toxicity

**Q.** What about the “cytotoxicity (viability) in Jurkat cells” value [3] of the same compound?
**A.** only started showing a trend toward some toxicity at the highest concentration of 200 μM

**Q.** Which results are given for “PD‐1 ITSM: PD‐1 immunoreceptor tyrosine‐based switch motif phosphopeptide of the authors' earlier work (ref 11) (EQTEYATIVFP; phospho-Tyr5 (pTyr))”?
**A.** Kd [4]: 0.167 µM; Kd [5]: 0.013 µM
